Assay results taken from ChEMBL document CHEMBL2413072, “Synthesis and in vitro anticancer studies of novel C-2 arylidene congeners of lantadenes” (2013).

Key:
Format in all cases: functional
786-0 [1] = assay: Growth inhibition of human 786-0 cells assessed as cell growth at 10^-7 M by sulforhodamine B assay; conditions: read-out: Activity
HCT-15 = assay: Growth inhibition of human HCT15 cells assessed as cell growth at 10^-8 M by sulforhodamine B assay; conditions: read-out: Activity
CCRF-CEM = assay: Growth inhibition of human CCRF-CEM cells assessed as cell growth at 10^-8 M by sulforhodamine B assay; conditions: read-out: Activity
TK-10 [2] = assay: Growth inhibition of human TK10 cells by sulforhodamine B assay
786-0 [3] = assay: Growth inhibition of human 786-0 cells assessed as cell growth at 10^-6 M by sulforhodamine B assay; conditions: read-out: Activity
RXF 393 = assay: Growth inhibition of human RXF393 cells assessed as cell growth at 10^-6 M by sulforhodamine B assay; conditions: read-out: Activity
SF-268 = assay: Growth inhibition of human SF268 cells assessed as cell growth at 10^-4 M by sulforhodamine B assay; conditions: read-out: Activity
MCF7 [4] = assay: Growth inhibition of human MCF7 cells assessed as cell growth at 10^-4 M by sulforhodamine B assay; conditions: read-out: Activity
SK-OV-3 = assay: Growth inhibition of human SKOV3 cells assessed as cell growth at 10^-8 M by sulforhodamine B assay; conditions: read-out: Activity
SNB-19 [5] = assay: Growth inhibition of human SNB19 cells by sulforhodamine B assay
OVCAR-8 [6] = assay: Growth inhibition of human OVCAR8 cells assessed as cell growth at 10^-7 M by sulforhodamine B assay; conditions: read-out: Activity
SNB-75 = assay: Growth inhibition of human SNB75 cells assessed as cell growth at 10^-8 M by sulforhodamine B assay; conditions: read-out: Activity
SNB-19 [7] = assay: Growth inhibition of human SNB19 cells assessed as cell growth at 10^-6 M by sulforhodamine B assay; conditions: read-out: Activity
NCI-H460 = assay: Growth inhibition of human NCI-H460 cells assessed as cell growth at 10^-4 M by sulforhodamine B assay; conditions: read-out: Activity
M14 = assay: Growth inhibition of human M14 cells by sulforhodamine B assay
A549 = assay: Growth inhibition of human A549/ATCC cells by sulforhodamine B assay
SK-MEL-2 = assay: Growth inhibition of human SK-MEL-2 cells assessed as cell growth at 10^-8 M by sulforhodamine B assay; conditions: read-out: Activity
PC-3 [8] = assay: Growth inhibition of human PC3 cells assessed as cell growth at 10^-6 M by sulforhodamine B assay; conditions: read-out: Activity
[9] = Growth inhibition of human Hs 578T cells assessed as cell growth at 10^-4 M by sulforhodamine B assay; conditions: read-out: Activity
UACC-257 = assay: Growth inhibition of human UACC257 cells assessed as cell growth at 10^-7 M by sulforhodamine B assay; conditions: read-out: Activity
DU-145 = assay: Growth inhibition of human DU145 cells assessed as cell growth at 10^-6 M by sulforhodamine B assay; conditions: read-out: Activity
NCI-H23 [10] = assay: Growth inhibition of human NCI-H23 cells assessed as cell growth at 10^-4 M by sulforhodamine B assay; conditions: read-out: Activity
MCF7 [11] = assay: Growth inhibition of human MCF7 cells by sulforhodamine B assay
[12] = Growth inhibition of human HCC2998 cells assessed as cell growth at 10^-7 M by sulforhodamine B assay; conditions: HCC 2998, read-out: Activity
NCI-H23 [13] = assay: Growth inhibition of human NCI-H23 cells by sulforhodamine B assay
SR [14] = assay: Growth inhibition of human SR cells assessed as cell growth at 10^-6 M by sulforhodamine B assay; conditions: read-out: Activity
OVCAR-3 = assay: Growth inhibition of human OVCAR3 cells assessed as cell growth at 10^-8 M by sulforhodamine B assay; conditions: read-out: Activity
U-251 [15] = assay: Growth inhibition of human U251 cells assessed as cell growth at 10^-7 M by sulforhodamine B assay; conditions: read-out: Activity
[16] = Growth inhibition of human HCC2998 cells assessed as cell growth at 10^-4 M by sulforhodamine B assay; conditions: HCC 2998, read-out: Activity
HL-60(TB) = assay: Growth inhibition of human HL-60(TB) cells by sulforhodamine B assay
T47D = assay: Growth inhibition of human T47D cells assessed as cell growth at 10^-4 M by sulforhodamine B assay; conditions: read-out: Activity
OVCAR-5 = assay: Growth inhibition of human OVCAR5 cells assessed as cell growth at 10^-4 M by sulforhodamine B assay; conditions: read-out: Activity
SR [17] = assay: Growth inhibition of human SR cells assessed as cell growth at 10^-4 M by sulforhodamine B assay; conditions: read-out: Activity
U-251 [18] = assay: Growth inhibition of human U251 cells assessed as cell growth at 10^-6 M by sulforhodamine B assay; conditions: read-out: Activity
PC-3 [19] = assay: Growth inhibition of human PC3 cells assessed as cell growth at 10^-8 M by sulforhodamine B assay; conditions: read-out: Activity
SN12C = assay: Growth inhibition of human SN12C cells by sulforhodamine B assay
UACC-62 = assay: Growth inhibition of human UACC62 cells assessed as cell growth at 10^-8 M by sulforhodamine B assay; conditions: read-out: Activity
CAKI-1 = assay: Growth inhibition of human CAKI-1 cells assessed as cell growth at 10^-4 M by sulforhodamine B assay; conditions: read-out: Activity
OVCAR-8 [20] = assay: Growth inhibition of human OVCAR8 cells assessed as cell growth at 10^-6 M by sulforhodamine B assay; conditions: read-out: Activity
TK-10 [21] = assay: Growth inhibition of human TK10 cells assessed as cell growth at 10^-7 M by sulforhodamine B assay; conditions: read-out: Activity
SF-295 = assay: Growth inhibition of human SF295 cells assessed as cell growth at 10^-4 M by sulforhodamine B assay; conditions: read-out: Activity
[22] = read-out: LC50 (the source's name)
[23] = read-out: pLC50 (the source's name) (converted)

Molecule `C/C=C(/C)C(=O)O[C@@H]1CC(C)(C)C[C@H]2C3=CC[C@@H]4[C@@]5(C)CC[C@H](O)C(C)(C)[C@@H]5CC[C@@]4(C)[C@]3(C)CC[C@@]12C(=O)O` [Reduced Lantadene A] has a growth at 0.1 µM (786-0 [1]) of 97%, a growth at 0.01 µM (HCT-15) of 100% and a growth at 0.01 µM (CCRF-CEM) of 98%. For the same molecule, the GI50 (TK-10 [2]; read-out: GI50) was 2.25 µM, the CC50 (TK-10 [2]; [22]) was 9.55 µM and the TGI (TK-10 [2]; read-out: TGI) was 4.63 µM. For the same molecule, the GI50 (TK-10 [2]; read-out: pGI50 (converted)) was 2.24 µM, the CC50 (TK-10 [2]; [23]) was 9.55 µM and the TGI (TK-10 [2]; read-out: pTGI (converted)) was 4.68 µM. It also gave a growth at 1 µM (786-0 [3]) of 97%, a growth at 1 µM (RXF 393) of 87% and a growth at 100 µM (SF-268) of -34%. For the same molecule, the growth at 100 µM (MCF7 [4]) was -39%, the growth at 0.01 µM (SK-OV-3) was 100% and the GI50 (SNB-19 [5]; read-out: GI50) was 1.65 µM. It also gave a TGI (SNB-19 [5]; read-out: TGI) of 3.37 µM, a GI50 (SNB-19 [5]; read-out: pGI50 (converted)) of 1.66 µM and a TGI (SNB-19 [5]; read-out: pTGI (converted)) of 3.39 µM. It also gave a growth at 0.1 µM (OVCAR-8 [6]) of 99%, a growth at 0.01 µM (SNB-75) of 78% and a growth at 1 µM (SNB-19 [7]) of 85%. The growth at 100 µM (NCI-H460) was -37%, the GI50 (M14; read-out: GI50) was 1.81 µM and the TGI (M14; read-out: TGI) was 3.92 µM. For the same molecule, the GI50 (M14; read-out: pGI50 (converted)) was 1.82 µM, the TGI (M14; read-out: pTGI (converted)) was 3.89 µM and the GI50 (A549; read-out: GI50) was 1.19 µM. The CC50 (A549; [22]) was 6.37 µM, the TGI (A549; read-out: TGI) was 2.76 µM and the GI50 (A549; read-out: pGI50 (converted)) was 1.2 µM. It also gave a CC50 (A549; [23]) of 6.31 µM, a TGI (A549; read-out: pTGI (converted)) of 2.75 µM and a growth at 0.01 µM (SK-MEL-2) of 107%. The growth at 1 µM (PC-3 [8]) was 70%, the growth at 100 µM [9] was -38% and the growth at 0.1 µM (UACC-257) was 88%. It also gave a growth at 1 µM (DU-145) of 109%, a growth at 100 µM (NCI-H23 [10]) of -51% and a GI50 (MCF7 [11]; read-out: GI50) of 3.09 µM. It also gave a CC50 (MCF7 [11]; [22]) of over 100 µM, a TGI (MCF7 [11]; read-out: TGI) of 16.5 µM and a GI50 (MCF7 [11]; read-out: pGI50 (converted)) of 3.09 µM. The CC50 (MCF7 [11]; [23]) was over 100 µM, the TGI (MCF7 [11]; read-out: pTGI (converted)) was 16.6 µM and the growth at 0.1 µM [12] was 104%. For the same molecule, the GI50 (NCI-H23 [13]; read-out: GI50) was 2.39 µM, the CC50 (NCI-H23 [13]; [22]) was 91.2 µM and the TGI (NCI-H23 [13]; read-out: TGI) was 5.93 µM. It also gave a GI50 (NCI-H23 [13]; read-out: pGI50 (converted)) of 2.4 µM, a CC50 (NCI-H23 [13]; [23]) of 91.2 µM and a TGI (NCI-H23 [13]; read-out: pTGI (converted)) of 5.89 µM. The growth at 1 µM (SR [14]) was 89%, the growth at 0.01 µM (OVCAR-3) was 106% and the growth at 0.1 µM (U-251 [15]) was 90%. It also gave a growth at 100 µM [16] of -58%, a GI50 (HL-60(TB); read-out: GI50) of 2.19 µM and a CC50 (HL-60(TB); [22]) of over 100 µM. It also gave a TGI (HL-60(TB); read-out: TGI) of 4.9 µM, a GI50 (HL-60(TB); read-out: pGI50 (converted)) of 2.19 µM and a CC50 (HL-60(TB); [23]) of over 100 µM. It also gave a TGI (HL-60(TB); read-out: pTGI (converted)) of 4.9 µM, a growth at 100 µM (T47D) of -36% and a growth at 100 µM (OVCAR-5) of -73%. For the same molecule, the growth at 100 µM (SR [17]) was -13%, the growth at 1 µM (U-251 [18]) was 83% and the growth at 0.01 µM (PC-3 [19]) was 92%. The GI50 (SN12C; read-out: GI50) was 1.63 µM, the CC50 (SN12C; [22]) was 7.22 µM and the TGI (SN12C; read-out: TGI) was 3.43 µM. For the same molecule, the GI50 (SN12C; read-out: pGI50 (converted)) was 1.62 µM, the CC50 (SN12C; [23]) was 7.24 µM and the TGI (SN12C; read-out: pTGI (converted)) was 3.47 µM. It also gave a growth at 0.01 µM (UACC-62) of 96%, a growth at 100 µM (CAKI-1) of -65% and a growth at 1 µM (OVCAR-8 [20]) of 97%. For the same molecule, the growth at 0.1 µM (TK-10 [21]) was 108% and the growth at 100 µM (SF-295) was -57%.
